For one test, the target named is T1, PKC isoenzyme ε (Homo sapiens, UniProt Q02156).
T1 construct: made in house; host or cells: baculovirus-insect cell expression system
T1 sequence (Q02156 1-737): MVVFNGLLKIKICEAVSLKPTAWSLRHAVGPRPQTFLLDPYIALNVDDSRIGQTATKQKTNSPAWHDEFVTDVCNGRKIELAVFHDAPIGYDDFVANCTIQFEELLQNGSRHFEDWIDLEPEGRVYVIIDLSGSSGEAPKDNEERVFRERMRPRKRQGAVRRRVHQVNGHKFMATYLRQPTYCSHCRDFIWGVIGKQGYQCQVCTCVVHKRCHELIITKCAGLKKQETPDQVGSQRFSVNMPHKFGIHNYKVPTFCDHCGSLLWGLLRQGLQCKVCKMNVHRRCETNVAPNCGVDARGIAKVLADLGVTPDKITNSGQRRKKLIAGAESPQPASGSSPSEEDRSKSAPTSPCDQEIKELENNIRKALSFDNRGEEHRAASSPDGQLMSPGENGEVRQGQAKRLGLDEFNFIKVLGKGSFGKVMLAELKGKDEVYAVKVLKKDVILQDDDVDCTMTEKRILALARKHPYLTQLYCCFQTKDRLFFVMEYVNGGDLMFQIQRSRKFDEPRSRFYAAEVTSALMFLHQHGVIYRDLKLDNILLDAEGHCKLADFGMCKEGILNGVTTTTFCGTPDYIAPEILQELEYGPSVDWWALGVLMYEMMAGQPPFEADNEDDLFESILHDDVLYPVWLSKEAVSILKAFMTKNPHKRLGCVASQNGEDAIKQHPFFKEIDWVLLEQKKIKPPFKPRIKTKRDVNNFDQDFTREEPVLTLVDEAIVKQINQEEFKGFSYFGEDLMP
In words: Protein kinase C inhibition assay, PKC isoenzyme ε. Format: biochemical. The following applies: read-out: IC50 PKC ε. As to the method:
(§1) A protein kinase C (PKC) assay is designed to duplicate the in vivo conditions required for protein kinase C function. Therefore, pH, salt and cofactor concentrations are similar to physiologic levels. Either lysine rich histone H1 (H1) or Myelin basic protein (Mbp) are used in the assay as the phosphorylation acceptor-protein because they are readily available and serve as good substrates for protein kinase C. Enzyme was prepared from baculovirus-insect cell expression systems.
(§2) In the screening assay, phosphatidylserine (PS) and DAG were co-sonicated to form unilamellar and multilamellar vesicles. The concentration of lipids in the assay were suboptimal to maximize the detection potential of the assay for inhibitors or activators. Potential effector compounds were added to the assay in dimethylsulfoxide at four concentrations to give final inhibitor concentrations of 1, 10, 50, and 150 μM, respectively.
(§3) The assay was started with the addition of enzyme and stopped after 10 min by the addition of 25% trichloroacetic acid (TCA) and 1.0 mg/ml bovine serum albumin (BSA). The radioactive histone product was retained and washed on glass fiber filters that allow the unreacted P-ATP to pass through. The amount of phosphorylation was determined by measuring radioactivity with a scintillation counter. Controls were included in every assay to measure background activity in the absence of enzyme, activity in the absence of lipids, and the maximum enzyme activity with saturating levels of the activator lipids.
(§4) Results of the protein kinase C assay are shown in Table 4 in columns labeled α, βII, γ, δ, ε, and .zeta. which represent various PKC isoenzymes. Results are show as IC50, which is the concentration of test compound needed to inhibit 50% of the protein kinase C activity in controls.

A further test deals with T2, PKC isoenzyme ζ (Homo sapiens, UniProt Q05513).
T2 construct: made in house; host or cells: baculovirus-insect cell expression system
T2 sequence (Q05513 1-592): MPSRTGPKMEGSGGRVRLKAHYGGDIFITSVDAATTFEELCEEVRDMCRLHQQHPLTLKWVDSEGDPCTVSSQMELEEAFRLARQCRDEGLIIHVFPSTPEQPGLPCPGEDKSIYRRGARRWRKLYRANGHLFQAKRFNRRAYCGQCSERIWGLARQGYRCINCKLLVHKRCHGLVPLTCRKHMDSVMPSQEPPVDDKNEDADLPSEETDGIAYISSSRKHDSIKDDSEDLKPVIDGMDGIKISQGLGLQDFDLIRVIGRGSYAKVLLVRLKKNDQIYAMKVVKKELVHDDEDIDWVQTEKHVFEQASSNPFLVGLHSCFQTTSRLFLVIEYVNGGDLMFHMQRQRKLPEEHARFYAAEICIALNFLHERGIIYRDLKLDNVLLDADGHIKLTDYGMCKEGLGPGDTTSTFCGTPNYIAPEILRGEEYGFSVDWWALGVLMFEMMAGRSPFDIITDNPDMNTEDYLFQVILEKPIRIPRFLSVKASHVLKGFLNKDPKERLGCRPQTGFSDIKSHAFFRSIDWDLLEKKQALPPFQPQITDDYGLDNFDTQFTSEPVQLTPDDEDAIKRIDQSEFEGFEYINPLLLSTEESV
In words: Protein kinase C inhibition assay, PKC isoenzyme ζ. It counts as biochemical. The note with it: read-out: IC50 PKC .zeta. The procedure:
as §1, §2, §3, §4

Test [1] addresses cAMP dependent protein kinase (PKA). In words: cAMP Dependent Protein Kinase (PKA) Assay. It counts as biochemical. The note with it: for IC50: catalytic subunit of PKA. As to the method: Compounds found to be inhibitors of protein kinase C were tested for inhibitory activity against cAMP dependent protein kinase (PKA). This enzyme, like protein kinase C, plays an important role in cell-cell communication and is activated by a second messenger, cAMP. Secondary screening against PKA is useful for ascertaining the selectivity of the compounds of the invention.
The catalytic subunit of PKA (Sigma Chemical Company, St. Louis, Mo.) was mixed with buffer before addition of the inhibitor in dimethylsulfoxide (DMSO). Potential inhibitor compounds were added to the assay in dimethylsulfoxide at two concentrations to give final inhibitor concentrations of 30 and 150 μM, respectively. The assay was started by the addition of ^32 P-ATP and the reaction was allowed to proceed for 10 min before stopping with 25% trichloroacetic acid (TCA) and 1.0 mg/ml bovine serum albumin (BSA). Phosphorylated protein was then isolated by filtration and the radioactivity was counted by a beta scintillation counter.

The target in the next test is T3, PKC isoenzyme α (Homo sapiens, UniProt P17252).
T3 construct: made in house; host or cells: baculovirus-insect cell expression system
Kind of test: Protein kinase C inhibition assay, PKC isoenzyme α. The following applies: read-out: IC50 PKC α. Format: biochemical. As to the method:
as §1, §2, §3, §4

The target of another test is T4, PKC isoenzyme γ (Homo sapiens, UniProt P05129).
T4 construct: made in house; host or cells: baculovirus-insect cell expression system
Kind of test: Protein kinase C inhibition assay, PKC isoenzyme γ. It counts as biochemical. The note with it: read-out: IC50 PKC γ. As to the method:
as §1, §2, §3, §4

Test [2] deals with normal human epidermal keratinocyte (NHEK) cells. In words: Human Keratinocyte Inhibition (3H TdR Assay). It counts as cell-based. The note with it: Homo sapiens, 24 h incubation, 3H-thymidine. The procedure: Proliferating normal human epidermal keratinocyte (NHEK) cells were obtained in the second passage and grown in keratinocyte growth medium, KGM (Clonetics, Inc.) at 37° C., 5% CO2. The cells were trypsinized (0.25%), centrifuged, counted with a hemocytometer, and seeded at a concentration of 5000 cells in 100 μl well in a 96-well microtiter plate.
After the cells were allowed to attach to the microtiter plate overnight, test agents were titrated to determine the dose response. This was done by adding each test agent dilution in quadruplicate to the plate at 2× final concentration in 100 μl to bring the total volume of each well to 200 μl. Culture media with no test agent added was used as a normal control. Duplicate sets of plates were established.
After twenty-four hours of incubation with test compounds 37° C. and 5% CO2, […] of 0.01 mCi/ml tritiated thymidine (New England Nuclear) was added to each well and allowed to incubate for another 4 hours under the same conditions.
Supernatant was aspirated and discarded and […] of 0.05% trypsin (Gibco) was added to each cell. Cells were checked microscopically to determine detachment from surfaces and then harvested onto glass filters. The filters were then placed in vials to which scintillant was added and counted for one minute each in a scintillation counter.
Determine mean cpm of wells containing test agent (n=4) or KGM control (n=16). Calculate % of control by the formula: [formula]
The IC50, or connection necessary to inhibit 50% of control, of each test agent was determined by plotting % control vs log concentration for each dilution and then linear forecasting the 50% control value onto the X axis on a Quatro Pro computer program. Only regression values with a correlation coefficient greater than 0.9 were considered acceptable.

Another test addresses T5, PKC isoenzyme βII (Homo sapiens, UniProt P05771).
T5 construct: made in house; host or cells: baculovirus-insect cell expression system
In words: Protein kinase C inhibition assay, PKC isoenzyme βII. Format: biochemical. The note with it: read-out: IC50 PKC βII. The procedure:
as §1, §2, §3, §4

The next test deals with T6, PKC isoenzyme δ (Homo sapiens, UniProt Q05655).
T6 construct: made in house; host or cells: baculovirus-insect cell expression system
In words: Protein kinase C inhibition assay, PKC isoenzyme δ. Format: biochemical. The following applies: read-out: IC50 PKC δ. The procedure: as §1, §2, §3, §4

This note sets out measurements from patent US5292737A, “N,N'-bis(sulfonamido)-2-amino-4-iminonaphthalen-1-ones and N,N'-bis(amido)-2-amino-4-iminonaphthalen-1-ones” (Sphinx Pharmaceuticals Corporation, priority 1992, dated 1994).

T5 sequence (P05771 1-673 isoform P05771-2): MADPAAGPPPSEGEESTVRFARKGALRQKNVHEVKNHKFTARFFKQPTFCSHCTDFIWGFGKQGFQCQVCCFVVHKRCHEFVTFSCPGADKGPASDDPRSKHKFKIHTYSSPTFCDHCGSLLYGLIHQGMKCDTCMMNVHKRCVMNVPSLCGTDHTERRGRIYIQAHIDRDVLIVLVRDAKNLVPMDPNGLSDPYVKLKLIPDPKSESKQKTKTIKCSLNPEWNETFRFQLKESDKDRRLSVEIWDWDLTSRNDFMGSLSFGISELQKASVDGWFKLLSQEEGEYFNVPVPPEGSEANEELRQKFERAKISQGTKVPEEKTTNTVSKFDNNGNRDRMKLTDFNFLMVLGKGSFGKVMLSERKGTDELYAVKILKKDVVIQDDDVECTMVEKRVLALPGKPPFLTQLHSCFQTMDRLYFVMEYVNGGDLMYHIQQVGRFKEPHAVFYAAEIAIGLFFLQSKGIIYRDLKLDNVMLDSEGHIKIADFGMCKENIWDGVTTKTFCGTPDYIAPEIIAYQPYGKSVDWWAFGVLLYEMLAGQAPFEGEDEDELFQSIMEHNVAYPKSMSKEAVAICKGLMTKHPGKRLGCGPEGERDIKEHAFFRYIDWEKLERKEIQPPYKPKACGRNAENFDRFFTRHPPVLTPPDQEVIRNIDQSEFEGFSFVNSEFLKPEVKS
T6 sequence (Q05655 whole entry): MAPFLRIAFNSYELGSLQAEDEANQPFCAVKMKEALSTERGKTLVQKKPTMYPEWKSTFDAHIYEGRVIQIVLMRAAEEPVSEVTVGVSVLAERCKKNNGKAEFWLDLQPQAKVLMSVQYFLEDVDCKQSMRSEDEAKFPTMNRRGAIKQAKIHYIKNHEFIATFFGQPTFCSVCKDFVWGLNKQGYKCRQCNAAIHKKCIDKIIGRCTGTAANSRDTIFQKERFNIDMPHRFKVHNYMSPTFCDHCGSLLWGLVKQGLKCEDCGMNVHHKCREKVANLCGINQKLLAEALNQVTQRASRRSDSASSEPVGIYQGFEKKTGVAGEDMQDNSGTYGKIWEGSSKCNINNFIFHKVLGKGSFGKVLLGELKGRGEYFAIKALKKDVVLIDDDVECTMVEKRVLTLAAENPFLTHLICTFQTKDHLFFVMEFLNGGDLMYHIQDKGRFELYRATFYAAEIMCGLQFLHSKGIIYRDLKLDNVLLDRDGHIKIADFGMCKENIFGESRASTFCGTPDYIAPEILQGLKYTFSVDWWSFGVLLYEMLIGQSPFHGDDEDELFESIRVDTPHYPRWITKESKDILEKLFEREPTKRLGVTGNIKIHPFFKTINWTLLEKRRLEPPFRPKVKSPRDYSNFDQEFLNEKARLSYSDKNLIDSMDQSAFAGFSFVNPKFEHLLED

With `CCCCCCCCCCCCCCCCNS(=O)(=O)c1ccc(N=C2C=C(Nc3ccc(S(=O)(=O)NCCCCCCCCCCCCCCCC)cc3)C(=O)c3ccccc32)cc1` [Compound 3o], the IC50 at PKC isoenzyme ε is greater than 150 µM; on PKC isoenzyme ζ it was 26 µM; in test [1], greater than 150 µM; at PKC isoenzyme α, 117 µM; at PKC isoenzyme γ it was 118 µM; in test [2], 3.8 µM. Moreover, the IC50 at PKC isoenzyme βII was determined as 138 µM; at PKC isoenzyme δ it was 139 µM. Further, in test [1] (result in words), the “effect on PKA activity” value was “did not effect on PKA activity”.
With `Cc1cc(C)nc(NS(=O)(=O)c2ccc(N=C3C=C(Nc4ccc(S(=O)(=O)Nc5cc(C)cc(C)n5)cc4)C(=O)c4ccccc43)cc2)c1` [Compound 3aj], the IC50 at PKC isoenzyme ε is greater than 150 µM; on PKC isoenzyme ζ, greater than 150 µM; on PKC isoenzyme α, 90 µM; on PKC isoenzyme γ it was 88 µM; on PKC isoenzyme βII, greater than 150 µM; at PKC isoenzyme δ, greater than 150 µM.
For `O=C1C(Nc2ccc(S(=O)(=O)Nc3ncccn3)cc2)=CC(=Nc2ccc(S(=O)(=O)Nc3ncccn3)cc2)c2ccccc21` [Compound 3k], the half-inhibitory concentration (IC50) on PKC isoenzyme ε was greater than 150 µM; on PKC isoenzyme ζ, 37 µM; in test [1], 111 µM; at PKC isoenzyme α, 113 µM; at PKC isoenzyme γ it was 24 µM; in test [2], 1.8 µM. The 50% inhibitory concentration (IC50) on PKC isoenzyme βII and on PKC isoenzyme δ was greater than 150 µM each time.
